Read-outs that look alike come from different tables or passages of the source.
Experiments:
[1] = in vivo, iv; cited from earlier work
[2] = when carboxylates are protonated; cited from earlier work
[3] = Precipitation of anionic porphyrins at acidic pH; type: physicochemical; settings: pH 5.5, ~50% of carboxylate groups protonated
[4] = Electrochemistry: metal-centered redox potential (voltammetry); type: physicochemical; settings: for E1/2 (H2O)M^IIIP/(H2O)M^IIP: 0.1M NaCl and 0.01 M HCl, errors ±3 mV
Method: The electrochemistry was done as previously described on CH Instruments 600 Voltammetric Analyzer. The metal-centered redox potentials of aquametalloporhyrins were measured in 0.1 M NaCl and 0.01 M HCl. […] Thus, their voltammograms were obtained in 0.1 M NaCl, 0.1 M 1-methylimidazole, 0.05 M phosphate buffer, pH 7.8. Scan rates were 0.1 V/s. The potentials were standardized against MnTE-2-PyP^5+ and are given in Table 1, in mV versus normal hydrogen electrode, NHE [42].

[5] = cited from earlier work
[6] = Stability of metalloporphyrins to oxidative degradation (bleaching), spectrophotometric; settings: for remaining fraction of metalloporphyrin: after 6 hours, in the presence of cyclophosphamide, pH 7.4, 10 μM porphyrin; for remaining fraction of metalloporphyrin / stability to oxidative degradation / bleaching (in words): aerobic; for stability to oxidative degradation / bleaching (in words): pH 7.4, ascorbic acid
[7] = cited from earlier work; remark: listed apart in the source
[8] = pH 7.4; for remaining fraction of metalloporphyrin: buffer, 6 h
[9] = 0.1 M NaCl, 0.1 M 1-methylimidazole, 0.05 M phosphate buffer, pH 7.8, scan rate 0.1 V/s
[10] = footnote b: ref 42, pH 7.8, 0.05 M phosphate buffer, 0.1M NaCl, 0.5 mM porphyrin
[11] = footnote a: estimated from existing potentials of difluoro- and dichloro analogues [42] and those obtained herein

Molecule: O=P1(N(CCCl)CCCl)NCCCO1 (stereo not drawn) [CP, cyclophosphamide]
- CP hydroxylated to 4-OHCP in plasma [1]: around 2.4%
- peak CP levels in plasma [1]: 27.58 μg/mL μM

Molecule: C=CC1=C(C)c2cc3[n-]c(cc4[n-]c(cc5nc(cc1n2)C(C)=C5C=C)c(C)c4CCC(=O)O)c(CCC(=O)O)c3C.[Cl-].[Fe+3] [FePP-IX^−, Fe(III) protoporphyrin IX]
- precipitation under acidic conditions [2]: precipitate under acidic conditions
- precipitation at pH 5.5 [3]: precipitate out of the solutions
- E1/2 (1-MeIm)2M^IIIP/(1-MeIm)2M^IIP [4, 9]: 112 mV vs NHE
- pKa of carboxylate groups [5]: ~5
- remaining fraction of metalloporphyrin ([6]; 2 mM ascorbic acid): 71%
- stability to oxidative degradation / bleaching (in words) [6]: very resistant to bleaching

Molecule: C[n+]1ccccc1-c1c2nc(c(-c3cccc[n+]3C)c3ccc([n-]3)c(-c3cccc[n+]3C)c3nc(c(-c4cccc[n+]4C)c4ccc1[n-]4)C=C3)C=C2.[Fe+3] [FeTM-2-PyP^5+, Fe(III) tetrakis(N-methylpyridinium-2-yl)porphyrin]
- E1/2 (1-MeIm)2M^IIIP/(1-MeIm)2M^IIP [7, 10]: +432^b mV vs NHE
- E1/2 (H2O)M^IIIP/(H2O)M^IIP [7, 10]: +355^b mV vs NHE
- E1/2 (OH)M^IIIP/(H2O)M^IIP [7, 10]: +212^b mV vs NHE
- change of absorbance at 417.5 nm (porphyrin degradation) ([6]; 9 μM porphyrin, 2 mM ascorbic acid, +/−50 μM H2O2, +/−50 mM mannitol, PBS pH 7.4, 25° C., data not shown): decreased slowly
- remaining fraction of metalloporphyrin ([6]; 2 mM ascorbic acid): 41%

Molecule: C[n+]1ccccc1-c1c2nc(c(-c3cccc[n+]3C)c3ccc([n-]3)c(-c3cccc[n+]3C)c3nc(c(-c4cccc[n+]4C)c4ccc1[n-]4)C=C3)C=C2.[Mn+3] [MnTM-2-PyP^5+, Mn(III) tetrakis(N-methylpyridinium-2-yl)porphyrin]
- E1/2 (OH)M^IIIP/(H2O)M^IIP [7, 10]: +128^b mV vs NHE
- remaining fraction of metalloporphyrin ([6]; 2 mM ascorbic acid): 91%

Molecule: C[n+]1cccc(-c2c3nc(c(-c4ccc[n+](C)c4)c4ccc([n-]4)c(-c4ccc[n+](C)c4)c4nc(c(-c5ccc[n+](C)c5)c5ccc2[n-]5)C=C4)C=C3)c1.[Mn+3] [MnTM-3-PyP^5+, Mn(III) tetrakis(N-methylpyridinium-3-yl)porphyrin]
- E1/2 (OH)M^IIIP/(H2O)M^IIP ([7]; footnote c: ref 62, pH 11 where only 33% of (OH)MnTM-3-PyP^4+ exists): +42^c mV vs NHE
- remaining fraction of metalloporphyrin ([6]; 2 mM ascorbic acid): 94%

Molecule: Fe(III) meso tetrakis(2,6-dichloro-3-sulfonatophenyl)porphyrin [FeT(2,6-Cl2-3-SO3P)P^3−]
- E1/2 (1-MeIm)2M^IIIP/(1-MeIm)2M^IIP [7, 10]: +134^b mV vs NHE
- E1/2 (OH)M^IIIP/(H2O)M^IIP [7, 10]: +94^b mV vs NHE
- E1/2 (H2O)M^IIIP/(H2O)M^IIP ([4]; scan rate 0.1 V/s): +144^ mV vs NHE
- remaining fraction of metalloporphyrin [8]: 23%
- stability to oxidative degradation / bleaching (in words) [8]: least stable

Molecule: Fe(III) meso tetrakis(2,6-difluoro-3-sulfonatophenyl)porphyrin [FeT(2,6-F2-3-SO3P)P^3−]
- E1/2 (H2O)M^IIIP/(H2O)M^IIP ([4]; scan rate 0.1 V/s): +124^ mV vs NHE
- E1/2 (1-MeIm)2M^IIIP/(1-MeIm)2M^IIP [4, 11]: +114^a mV vs NHE
- E1/2 (OH)M^IIIP/(H2O)M^IIP [4, 11]: +74^a mV vs NHE
- 4-OHCP produced (pH 5.5): 46.11 µM
- cyclophosphamide hydroxylated relative to 10 μM porphyrin (pH 5.5): ~5 fold
- 4-OHCP formed (pH 7.4): 15.62 µM
- remaining fraction of metalloporphyrin [8]: 19%
- stability to oxidative degradation / bleaching (in words) [8]: least stable

Molecule: Fe(III) meso tetrakis(4-carboxylatophenyl)porphyrin [FeTBAP^3−]
- precipitation under acidic conditions [2]: precipitate under acidic conditions
- precipitation at pH 5.5 [3]: precipitate out of the solutions
- E1/2 (1-MeIm)2M^IIIP/(1-MeIm)2M^IIP [4, 9]: +22 ^ mV vs NHE
- pKa of carboxylate groups [5]: ~5
- remaining fraction of metalloporphyrin ([6]; 2 mM ascorbic acid): 24%
- stability to oxidative degradation / bleaching (in words) [6]: more prone to destruction

— patent publication US8759324B2 (priority 2006, dated 2014)
